From PMC12627933, “A First-In-Human Study of the SUMOylation Inhibitor Subasumstat in Patients with Advanced/Metastatic Solid Tumors or Relapsed/Refractory Hematologic Malignancies” (Cancer Research Communications, 2025)

Test: Safety: treatment-emergent adverse events (NCI CTCAE v5.0; CRS per ASTCT), phase I/II study NCT03648372
Format: in vivo
Method: This study comprised two parts: a phase I dose escalation and a phase II dose expansion (Fig. 1). In the dose-escalation phase, patients were enrolled to receive subasumstat intravenously as a 1-hour (±10 minutes) infusion on days 1, 4, 8, and 11 of a 21-day cycle (biweekly schedule). […] Dose escalation was based on cohort with an adaptive design using Bayesian logistic regression modeling with overdose control. The starting dose of subasumstat was based on Good Laboratory Practice animal toxicity studies and supported by the estimation of a minimum anticipated biologically effective level. A detailed description of dose-limiting toxicities (DLT) is presented in the Supplementary Methods.
The phase II dose-expansion portion enrolled patients to receive the recommended phase II dose (RP2D) determined in phase I, with each cohort assessed separately using an adaptive two-stage design for a single proportion (see Supplementary Methods). For stage 1, each cohort was analyzed when a prespecified number of patients were enrolled and had the potential to have at least one posttreatment scan [i.e., after the first disease assessment, 2 months from cycle 1 day 1 (C1D1)]. If the prespecified minimal response rate was not achieved in the first stage for a given cohort, that cohort would be closed to enrollment. […] The final analysis of the primary endpoints for each cohort would take place when all ongoing patients had the opportunity to complete the 6-month disease assessment. Across both phases, patients received subasumstat for up to 1 year or until confirmed disease progression, unacceptable toxicity, if any withdrawal criterion from the study was met, or if discontinuation of subasumstat occurred.
The occurrence of DLTs was assessed during cycle 1 (DLTs are described in the Supplementary Methods). Treatment-emergent adverse events (TEAE) were graded according to NCI Common Terminology Criteria for Adverse Events version 5.0, except for cytokine release syndrome (CRS), which was graded according to the American Society for Transplantation and Cellular Therapy Consensus Grading for CRS ([20]).
It was anticipated that approximately 70 DLT-evaluable patients would be enrolled for dose escalation. The safety analysis set included all patients who received at least one dose, even if incomplete, of subasumstat. […] The overall response rate (ORR) was defined as the proportion of patients who achieved complete response and partial response (PR) during the study. The disease control rate (DCR) was defined as the proportion of patients who achieved […] as per RECIST v1.1 for solid tumors or Lugano classification for lymphomas. […] Progression-free survival was summarized descriptively using the Kaplan–Meier method.

With `Cc1sc(C(=O)c2cncnc2N[C@@H]2C[C@H](COS(N)(=O)=O)[C@@H](O)C2)cc1[C@@H]1NCCc2ccc(Cl)cc21` [subasumstat] the “Subasumstat-related TEAE: Nausea” value (Phase II (n = 25)) was 4 (16.0) n (%), the “Subasumstat-related TEAE: Pyrexia” value (Phase II (n = 25)) was 9 (36.0) n (%) and the “Subasumstat-related TEAE: Vomiting” value (Phase II (n = 25)) was 1 (4.0) n (%). For the same compound, the “TEAE: Abdominal distension” value (Phase II (n = 25)) was 1 (4.0) n (%), the “TEAE: Abdominal pain” value (Phase II (n = 25)) was 4 (16.0) n (%) and the “TEAE: Anemia” value (Phase II (n = 25)) was 7 (28.0) n (%). For the same compound, the “TEAE: Arthralgia” value (Phase II (n = 25)) was 5 (20.0) n (%), the “TEAE: Back pain” value (Phase II (n = 25)) was 2 (8.0) n (%) and the “TEAE: CRS” value (Phase II (n = 25)) was 3 (12.0) n (%). The “TEAE: Chills” value (Phase II (n = 25)) was 8 (32.0) n (%), the “TEAE: Constipation” value (Phase II (n = 25)) was 2 (8.0) n (%) and the “TEAE: Decreased appetite” value (Phase II (n = 25)) was 5 (20.0) n (%). For the same compound, the “TEAE: Dehydration” value (Phase II (n = 25)) was 2 (8.0) n (%), the “TEAE: Diarrhea” value (Phase II (n = 25)) was 10 (40.0) n (%) and the “TEAE: Dyspnea” value (Phase II (n = 25)) was 4 (16.0) n (%). For the same compound, the “TEAE: Fatigue” value (Phase II (n = 25)) was 9 (36.0) n (%), the “TEAE: Headache” value (Phase II (n = 25)) was 7 (28.0) n (%) and the “TEAE: Hypophosphatemia” value (Phase II (n = 25)) was 0 n (%). For the same compound, the “TEAE: Insomnia” value (Phase II (n = 25)) was 2 (8.0) n (%), the “TEAE: Nausea” value (Phase II (n = 25)) was 4 (16.0) n (%) and the “TEAE: Peripheral edema” value (Phase II (n = 25)) was 2 (8.0) n (%). For the same compound, the “TEAE: Pleural effusion” value (Phase II (n = 25)) was 3 (12.0) n (%), the “TEAE: Pyrexia” value (Phase II (n = 25)) was 11 (44.0) n (%) and the “TEAE: Stomatitis” value (Phase II (n = 25)) was 3 (12.0) n (%). The “TEAE: Vomiting” value (Phase II (n = 25)) was 2 (8.0) n (%), the TEAEs (Phase II (n = 25)) was 24 (96.0) n (%) and the “TEAEs leading to discontinuation” value (Phase II (n = 25)) was 4 (16.0) n (%). The “TEAEs leading to discontinuation related to subasumstat” value (Phase II (n = 25)) was 1 (4.0) n (%), the “TEAEs related to subasumstat” value (Phase II (n = 25)) was 22 (88.0) n (%) and the “AESI (adverse event of special interest)” value (Total (N = 109)) was 12 (11.0) n (%). For the same compound, the “AESI related to subasumstat” value (Total (N = 109)) was 12 (11.0) n (%), the “AESI: CRS” value (Total (N = 109)) was 12 (11.0) n (%) and the “Grade ≥3 TEAE: Abdominal pain” value (Total (N = 109)) was 6 (5.5) n (%). The “Grade ≥3 TEAE: Acute kidney injury” value (Total (N = 109)) was 4 (3.7) n (%), the “Grade ≥3 TEAE: Anemia” value (Total (N = 109)) was 14 (12.8) n (%) and the “Grade ≥3 TEAE: Aspartate aminotransferase increased” value (Total (N = 109)) was 2 (1.8) n (%). The “Grade ≥3 TEAE: Blood bilirubin increased” value (Total (N = 109)) was 2 (1.8) n (%), the “Grade ≥3 TEAE: Dyspnea” value (Total (N = 109)) was 4 (3.7) n (%) and the “Grade ≥3 TEAE: Fatigue” value (Total (N = 109)) was 5 (4.6) n (%). For the same compound, the “Grade ≥3 TEAE: Hyperbilirubinemia” value (Total (N = 109)) was 2 (1.8) n (%), the “Grade ≥3 TEAE: Hypertension” value (Total (N = 109)) was 2 (1.8) n (%) and the “Grade ≥3 TEAE: Hypokalemia” value (Total (N = 109)) was 7 (6.4) n (%). For the same compound, the “Grade ≥3 TEAE: Hypomagnesemia” value (Total (N = 109)) was 2 (1.8) n (%), the “Grade ≥3 TEAE: Hypophosphatemia” value (Total (N = 109)) was 2 (1.8) n (%) and the “Grade ≥3 TEAE: Lymphocyte count decreased” value (Total (N = 109)) was 5 (4.6) n (%). For the same compound, the “Grade ≥3 TEAE: Lymphopenia” value (Total (N = 109)) was 2 (1.8) n (%), the “Grade ≥3 TEAE: Muscular weakness” value (Total (N = 109)) was 2 (1.8) n (%) and the “Grade ≥3 TEAE: Nausea” value (Total (N = 109)) was 2 (1.8) n (%). For the same compound, the “Grade ≥3 TEAE: Neutropenia” value (Total (N = 109)) was 4 (3.7) n (%), the “Grade ≥3 TEAE: Platelet count increased” value (Total (N = 109)) was 3 (2.8) n (%) and the “Grade ≥3 TEAE: Pleural effusion” value (Total (N = 109)) was 2 (1.8) n (%). The “Grade ≥3 TEAE: Pneumonia” value (Total (N = 109)) was 2 (1.8) n (%), the “Grade ≥3 TEAE: Pneumonitis” value (Total (N = 109)) was 2 (1.8) n (%) and the “Grade ≥3 TEAE: Pyrexia” value (Total (N = 109)) was 2 (1.8) n (%). The “Grade ≥3 TEAE: Small intestinal obstruction” value (Total (N = 109)) was 4 (3.7) n (%), the “Grade ≥3 TEAE: Thrombocytopenia” value (Total (N = 109)) was 2 (1.8) n (%) and the “Grade ≥3 TEAE: Vomiting” value (Total (N = 109)) was 4 (3.7) n (%). The “Grade ≥3 TEAEs” value (Total (N = 109)) was 66 (60.6) n (%), the “Grade ≥3 TEAEs related to subasumstat” value (Total (N = 109)) was 29 (26.6) n (%) and the On-study deaths (Total (N = 109)) was 12 (11.0) n (%). The “Patients with at least one grade ≥3 TEAE” value (Total (N = 109)) was 66 (60.6) n (%), the Serious adverse events (Total (N = 109)) was 48 (44.0) n (%) and the “Serious adverse events related to subasumstat” value (Total (N = 109)) was 12 (11.0) n (%). For the same compound, the “TEAE: Abdominal distension” value (Total (N = 109)) was 12 (11.0) n (%), the “TEAE: Abdominal pain” value (Total (N = 109)) was 21 (19.3) n (%) and the “TEAE: Anemia” value (Total (N = 109)) was 19 (17.4) n (%). For the same compound, the “TEAE: Arthralgia” value (Total (N = 109)) was 17 (15.6) n (%), the “TEAE: Back pain” value (Total (N = 109)) was 14 (12.8) n (%) and the “TEAE: CRS” value (Total (N = 109)) was 12 (11.0) n (%). For the same compound, the “TEAE: Chills” value (Total (N = 109)) was 28 (25.7) n (%).
